The nature of assay [1]: Luminescence Cell-Based Dose Confirmation HTS to Identify Activators of 5'UTR Stem-Loop Driven Alpha-Synuclein mRNA Translation in H4 Neuroglioblastoma Cells. [Related pubchem assays: 1829 (Project Summary), 1814 (Primary HTS)]. Type of assay: functional.
A short description of assay [2]: Luminescence Cell-Based Dose Response HTS to Identify Activators of Luciferase Translation or Activity in H4 […] Cells. [Related pubchem assays: 1829 (Project Summary), 1814 (Primary HTS)]. It is filed as functional.
A further assay has as its system H4. Description: Luminescence Cell-Based Dose Response HTS to Identify Activators of 5'UTR Stem-Loop Driven Prion Protein mRNA Translation in H4 Neuroglioblastoma Cells. [Related pubchem assays: 1829 (Project Summary), 1814 (Primary HTS)]. It is filed as functional. To be noted: Homo sapiens.
The next assay deals with Cytochrome P450 2C9 (Homo sapiens, UniProt P11712).
For the next assay, the target named is Cytochrome P450 2C19 (Homo sapiens, UniProt P33261). Put plainly: Cytochrome panel assay with activity outcomes. Panel member name: p450-cyp2c19 Compounds with AC50 equal or less than 10 uM are considered active. It is filed as functional. To be noted: read-out: AC50.
Another assay has as its target T1, Cytochrome P450 1A2 (Homo sapiens, UniProt P05177).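 Also: PubChem cytochrome P450 panel assay, CYP1A2 panel member.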
T1 sequence (P05177 whole entry): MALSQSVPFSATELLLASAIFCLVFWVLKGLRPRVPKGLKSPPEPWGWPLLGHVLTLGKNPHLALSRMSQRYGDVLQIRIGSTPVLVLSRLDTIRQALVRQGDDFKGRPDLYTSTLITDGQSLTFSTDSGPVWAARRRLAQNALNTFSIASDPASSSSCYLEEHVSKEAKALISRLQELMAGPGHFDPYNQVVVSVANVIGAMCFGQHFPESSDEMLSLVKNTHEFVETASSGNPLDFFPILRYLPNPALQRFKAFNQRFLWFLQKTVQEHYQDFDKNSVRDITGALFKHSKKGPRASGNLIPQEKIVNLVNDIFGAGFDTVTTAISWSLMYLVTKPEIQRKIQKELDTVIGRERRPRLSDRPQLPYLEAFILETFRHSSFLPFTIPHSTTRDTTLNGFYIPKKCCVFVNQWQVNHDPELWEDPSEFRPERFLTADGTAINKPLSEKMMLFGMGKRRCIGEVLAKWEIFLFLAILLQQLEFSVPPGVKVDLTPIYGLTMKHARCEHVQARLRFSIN

Another assay has as its target Cytochrome P450 2D6 (Homo sapiens, UniProt P10635).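 Also: CYP2D6 member of a cytochrome P450 panel assay.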
Assay [3] has as its target T2, Polyadenylate-binding protein 1 (Homo sapiens, UniProt P11940). Description: PABP1 MLLE–PAM2 interaction inhibitors, dose response, miRNA deadenylation inhibitor project, biochemical, fluorescence polarization, Cy5-PAM2 peptide, secondary (AID 602260). It is filed as functional. The settings on record: read-out: IC50_Mean.
The target of assay [4] is T2, Polyadenylate-binding protein 1. Description: PABP1 MLLE–PAM2 binding inhibitor potency, dose response, biochemical, fluorescence polarization, FITC-PAM2 peptide (AID 602259). Type of assay: functional. The settings on record: read-out: IC50_Mean.
For a further assay, the target named is Cytochrome P450 3A4 (Homo sapiens, UniProt P08684).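 Also: CYP3A4 tested as one member of a cytochrome P450 panel screen.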
In the next assay the test system is P388/ADR. Put plainly: cells. The settings on record: Mus musculus. Type of assay: functional.
A further assay deals with P388. Put plainly: cells. It is filed as functional. To be noted: Mus musculus.
Another assay has as its system SN12K1. Put plainly: cells. It is filed as functional. The settings on record: Homo sapiens.

Values joined by “and” are separate entries in the source; they are usually repeats but may differ in a detail not shown here. Equal entries are not always repeated. Structures can show the parent of a compound that is named as a salt. Active and inactive are the calls of the source.

Cytochrome P450 2C19, sequence (P33261 whole entry): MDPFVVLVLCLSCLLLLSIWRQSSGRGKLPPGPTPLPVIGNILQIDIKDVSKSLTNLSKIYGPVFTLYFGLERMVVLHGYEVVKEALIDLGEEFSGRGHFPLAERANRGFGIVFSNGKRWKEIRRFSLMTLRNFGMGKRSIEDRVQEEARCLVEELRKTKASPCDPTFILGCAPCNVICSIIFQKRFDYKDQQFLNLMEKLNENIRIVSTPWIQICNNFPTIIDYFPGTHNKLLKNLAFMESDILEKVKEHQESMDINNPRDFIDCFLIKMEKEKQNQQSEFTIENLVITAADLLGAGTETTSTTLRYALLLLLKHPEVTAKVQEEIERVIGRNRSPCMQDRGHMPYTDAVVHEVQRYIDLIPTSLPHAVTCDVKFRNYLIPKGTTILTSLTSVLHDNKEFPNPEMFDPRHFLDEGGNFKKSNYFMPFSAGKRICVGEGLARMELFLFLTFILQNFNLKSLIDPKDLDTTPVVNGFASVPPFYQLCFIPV
Cytochrome P450 3A4, sequence (P08684 whole entry): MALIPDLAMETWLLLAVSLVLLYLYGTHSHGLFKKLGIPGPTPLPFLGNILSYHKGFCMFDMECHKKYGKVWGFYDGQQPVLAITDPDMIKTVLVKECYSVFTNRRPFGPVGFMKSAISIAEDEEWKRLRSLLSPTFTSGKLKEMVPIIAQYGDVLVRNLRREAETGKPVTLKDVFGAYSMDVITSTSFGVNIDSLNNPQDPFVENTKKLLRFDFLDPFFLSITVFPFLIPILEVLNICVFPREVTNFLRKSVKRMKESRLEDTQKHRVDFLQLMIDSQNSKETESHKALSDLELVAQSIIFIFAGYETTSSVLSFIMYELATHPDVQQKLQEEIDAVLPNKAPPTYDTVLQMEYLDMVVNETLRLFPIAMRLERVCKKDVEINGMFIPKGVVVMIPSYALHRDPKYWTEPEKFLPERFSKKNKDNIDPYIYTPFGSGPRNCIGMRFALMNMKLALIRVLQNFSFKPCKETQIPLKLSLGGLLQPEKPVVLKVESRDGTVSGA
T2 sequence (P11940 whole entry): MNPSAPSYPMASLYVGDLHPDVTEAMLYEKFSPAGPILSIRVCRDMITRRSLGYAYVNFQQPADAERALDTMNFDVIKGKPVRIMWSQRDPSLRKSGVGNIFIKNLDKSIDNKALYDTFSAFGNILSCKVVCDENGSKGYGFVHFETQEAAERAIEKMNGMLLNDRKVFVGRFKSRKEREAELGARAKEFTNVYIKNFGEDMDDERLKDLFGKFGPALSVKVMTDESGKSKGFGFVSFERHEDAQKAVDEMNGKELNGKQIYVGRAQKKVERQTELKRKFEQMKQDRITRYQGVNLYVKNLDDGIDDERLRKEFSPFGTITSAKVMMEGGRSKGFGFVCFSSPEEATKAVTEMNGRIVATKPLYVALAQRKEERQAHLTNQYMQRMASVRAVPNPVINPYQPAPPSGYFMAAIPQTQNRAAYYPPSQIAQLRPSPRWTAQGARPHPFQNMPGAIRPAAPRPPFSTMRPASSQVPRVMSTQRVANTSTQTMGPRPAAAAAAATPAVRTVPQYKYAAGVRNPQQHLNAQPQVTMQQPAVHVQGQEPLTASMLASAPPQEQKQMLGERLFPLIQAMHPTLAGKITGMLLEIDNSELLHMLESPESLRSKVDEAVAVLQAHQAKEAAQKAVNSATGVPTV
Cytochrome P450 2D6, sequence (P10635 whole entry): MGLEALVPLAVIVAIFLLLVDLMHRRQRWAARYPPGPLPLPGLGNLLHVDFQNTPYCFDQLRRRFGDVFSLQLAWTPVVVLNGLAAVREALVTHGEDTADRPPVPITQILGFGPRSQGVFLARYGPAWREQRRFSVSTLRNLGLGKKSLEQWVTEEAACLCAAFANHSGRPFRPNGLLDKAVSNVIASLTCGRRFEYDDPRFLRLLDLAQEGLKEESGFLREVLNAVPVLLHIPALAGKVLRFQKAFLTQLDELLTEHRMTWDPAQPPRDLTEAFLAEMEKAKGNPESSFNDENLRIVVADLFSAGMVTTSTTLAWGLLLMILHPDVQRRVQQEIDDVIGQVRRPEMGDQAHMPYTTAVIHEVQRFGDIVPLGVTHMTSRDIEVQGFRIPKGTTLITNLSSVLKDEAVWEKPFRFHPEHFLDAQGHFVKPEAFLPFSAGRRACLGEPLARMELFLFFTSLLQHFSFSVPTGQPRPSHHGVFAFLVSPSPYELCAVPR
Cytochrome P450 2C9, sequence (P11712 whole entry): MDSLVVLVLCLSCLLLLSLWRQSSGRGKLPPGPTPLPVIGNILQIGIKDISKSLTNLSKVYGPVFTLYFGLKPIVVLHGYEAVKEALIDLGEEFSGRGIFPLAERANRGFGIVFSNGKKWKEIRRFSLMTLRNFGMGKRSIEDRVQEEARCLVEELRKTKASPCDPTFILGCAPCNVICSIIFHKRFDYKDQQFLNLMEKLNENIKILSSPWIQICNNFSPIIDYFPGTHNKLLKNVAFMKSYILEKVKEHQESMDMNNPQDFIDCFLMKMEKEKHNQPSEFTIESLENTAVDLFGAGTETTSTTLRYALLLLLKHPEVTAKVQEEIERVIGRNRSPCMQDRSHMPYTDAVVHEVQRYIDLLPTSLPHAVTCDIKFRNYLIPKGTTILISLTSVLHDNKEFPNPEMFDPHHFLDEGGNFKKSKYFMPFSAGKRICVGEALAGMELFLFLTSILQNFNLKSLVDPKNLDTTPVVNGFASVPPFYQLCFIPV

As to `CC12CCC(C(=O)Nc3nc4ccccc4s3)(OC1=O)C2(C)C` (stereo unspecified), the EC50 (commonly the midpoint of the concentration-response curve) in assay [1] is > 60 µM (not active); in assay [2] it was 18.9 µM (active); in the assay on H4, 12.7 µM (active).

Take `C=CCNC(SCC(=O)c1ccc(Cl)cc1)=C1C(=O)N(C)C(=O)N(C)C1=O`: the 50% effective concentration (EC50) in [1] is 24.9 µM (active); in assay [2], > 120 µM (not active); with H4 it was 19.5 µM (active).

With `O=C(Nc1nc2c(F)cc(F)cc2s1)C1CCN(C(=O)c2ccc(F)cc2)CC1`, the concentration for a half-maximal effect (EC50) in assay [1] is 3.61 µM (active); in assay [2], 8.78 µM (active); with H4, 26.8 µM (active).

With `CCOC(=O)C1CCN(c2c(Nc3ccc4c(c3)OCCO4)c(=O)c2=O)CC1`, the EC50 is 18.9 µM (active) in assay [1], 18 µM (active) in [2] and 9.87 µM (active) with H4.

`CCn1c(Cc2ccccc2)nnc1SCC(=O)NC(C)(C)C`: the concentration at half-maximal activity (AC50) (as a rule, the concentration giving half of the maximal activity seen) is 12.6 µM (inconclusive) at Cytochrome P450 2C9 and 14.1 µM (inconclusive) at Cytochrome P450 2C19.

For the molecule `CCCCCC1CCC(C(=O)NN=C(S)NCC)CC1` (stereo unspecified), the results for the AC50 at Cytochrome P450 1A2, on Cytochrome P450 2D6 and at Cytochrome P450 2C9 were 12.6 µM (inconclusive), 15.8 µM (inconclusive) and 1.78 µM (inconclusive), respectively.

In the case of `CN(Cc1ccccc1)S(=O)(=O)c1ccc(NC(=S)NC(=O)C(C)(C)C)cc1`, the IC50 in assay [3] and in [4] was > 66 µM (inactive) in each case.

On to `COc1ccc(CNc2nc(-c3cccc(C#N)c3)nc3ccccc23)c(OC)c1`, for which the results for the AC50 at Cytochrome P450 2D6, at Cytochrome P450 2C9 and on Cytochrome P450 2C19 were 3.98 µM (inconclusive), 1 µM (inconclusive) and 1.58 µM (inconclusive), respectively.

Regarding `O=C1CN=C(Nc2ccc(Cl)cc2)N1c1ccccc1`, the AC50 on Cytochrome P450 1A2 is 14.1 µM (inconclusive); at Cytochrome P450 2D6, 20 µM (inconclusive); at Cytochrome P450 3A4 it was 14.1 µM (inconclusive); on Cytochrome P450 2C9 it was 0.00562 µM (inconclusive).

Regarding `NC(=O)CN1CCN(c2nc(-c3ccc(F)cc3)cs2)CC1`, the values for the AC50 on Cytochrome P450 3A4 and on Cytochrome P450 2C9 were 14.1 µM (inconclusive) and 6.31 µM (inconclusive), respectively.

With `CC(C)NCCCOc1ccc(Cl)cc1Br`, the AC50 on Cytochrome P450 2C9 was 4.47 µM (inconclusive).

On to `COCCn1c(=O)c(-c2cc(F)cc(F)c2)nc2cnc(Oc3ccccc3)nc21`, for which the AC50 at Cytochrome P450 3A4 was 20 µM (inconclusive); on Cytochrome P450 2C9, 20 µM (inconclusive); on Cytochrome P450 2C19, 39.8 µM (inconclusive).

As to `C=CCSc1nc2c(c(=O)[nH]c(=O)n2C)n1C(C)C`, the IC50 in [3] and in assay [4] was > 66 µM (inactive) in each case.

Turning to `O=C(NC(=S)N1C[C@H]2C[C@H](C1)c1cccc(=O)n1C2)c1ccc(Cl)cc1`, the IC50 in assay [3] and in assay [4] was > 66 µM (inactive) each time.

For `O=C(Nc1cc(C(F)(F)F)ccc1Cl)c1cc2nc3c(c(C(F)(F)F)n2n1)CCCC3`, the EC50 in [1] was 1.53 µM (active); in [2] it was 0.365 µM (active); with H4 it was 0.195 µM (active).

Turning to `CCC(=O)Nc1ccc(Cl)c(NC(=S)NC(=O)COc2ccccc2)c1`, the IC50 in assay [3] and in assay [4] was > 66 µM (inactive) throughout.

As for `S=C(N=Nc1ccccc1)NNc1ccccc1`, the results for the concentration giving a half-maximal response (EC50) (in assay [1]; in [2]; in the assay on H4) were 14.4 µM (active), 14.1 µM (active) and 27.9 µM (inconclusive), respectively.

As to `COC(=O)c1cc(OC)c(OC)cc1NC(=O)CSc1ccc(C)cc1`, the AC50 at Cytochrome P450 2C9 was 7.94 µM (inconclusive).

Consider `COc1cccc(NC(=O)CCC(=O)Nc2ccc3nc(N4CCOCC4)cc(C)c3c2)c1`, for which the EC50 (in assay [1]; in assay [2]; with H4) was > 120 µM (not active) throughout.

Consider `Cc1cc(C)c[n+](-c2[n-]c(=O)sc2C=NNC(=O)c2cccnc2)c1`, for which the IC50 in assay [3] was > 66 µM (inactive); in assay [4], 59.7 µM (inactive).

Consider `CN(Cc1ccc(Cl)cc1)C(=O)COC(=O)CSc1ccc([N+](=O)[O-])cc1`, for which the IC50 in [3] and in assay [4] was > 66 µM (inactive) throughout.

Take `CCNc1ncc2nc(-c3cccs3)c(=O)n(CCC#N)c2n1`: at Cytochrome P450 2C9, the AC50 was 12.6 µM (inconclusive).

With `NC(=S)Nc1ccc(S(=O)(=O)c2ccc(NC(N)=S)cc2)cc1`, the IC50 in assay [3] and in assay [4] was > 66 µM (inactive) each time.

With `CC1=C(C(=O)N2CCCCCC2)C2(CCC(C)CC2)OC1=O` (stereo unspecified), the AC50 at Cytochrome P450 1A2 is 0.0158 µM (inconclusive); at Cytochrome P450 2C9 it was 28.2 µM (inconclusive).

Take `O=C1C=CC2OC(c3ccccc3)C(O)C2O1` (stereo unspecified): the GI50 – broadly, the concentration at which growth is held to half of that of the control – was 1.16 µM (inactive) in the assay on P388/ADR, 1.56 µM (inactive) in the assay on P388 and 4.6 µM (inactive) in the assay on SN12K1.

As to `CSCSCC(CO)NC(=O)/C=C\c1c(C)[nH]c(=O)[nH]c1=O` (stereo unspecified), the figures for the GI50 with P388/ADR, in the assay on P388 and in the assay on SN12K1 were 57.4 µM (inactive), 23.1 µM (inactive) and 11.1 µM (inactive), respectively.

As for `COC(=O)[C@@H](O)[C@](O)(CCC(C)C)C(=O)O[C@@H]1C(OC)=C[C@]23CCCN2CCc2cc4c(cc2[C@H]13)OCO4`, the GI50 in the assay on P388/ADR is 2.29 µM (inactive); in the assay on P388 it was 0.247 µM (active); with SN12K1, 0.682 µM (active).

With `N/C(=N\O)N/N=C\c1ccccc1O`, the GI50 in the assay with P388/ADR is 1.54 µM (inactive); in the assay with P388, 1.66 µM (inactive); in the assay with SN12K1 it was 3.91 µM (inactive).

Take `CC(=O)OC1C=C(C=O)C(O)(C=O)C2(C)CCCC(C)(C)C12` (stereo unspecified): the GI50 in the assay with P388/ADR was 0.322 µM (active); in the assay on P388 it was 0.142 µM (active); with SN12K1, 1.36 µM (inactive).

With `O=C1C(Br)=CC2(C=C1Br)CCNC1=C2C2=NCCc3c[nH]c(c32)C1=O`, the GI50 is 0.0162 µM (active) in the assay on P388/ADR, 0.0146 µM (active) with P388 and 0.168 µM (active) in the assay with SN12K1.

Take `CCCCCCCCC1=CCC(CN(C)C)C1=O` (stereo unspecified): the GI50 was 2.92 µM (inactive) in the assay on P388/ADR, 4.29 µM (inactive) with P388 and 17.6 µM (inactive) in the assay with SN12K1.

On to `Oc1ccc(Br)cc1/C=N/n1cnc2ccccc21`, for which the EC50 is 11 µM (active) in assay [1], 15.8 µM (active) in assay [2] and 17.9 µM (active) with H4.

Regarding `CCSc1nc(COC(=O)NC)c(COC(=O)NC)n1C`, the GI50 in the assay on P388/ADR is > 100 µM (inactive); in the assay with P388, 67.6 µM (inactive); in the assay on SN12K1, > 100 µM (inactive).

For the molecule `CCN(CCCl)CCNc1c2ccccc2nc2ccc(OC)cc12`, the GI50 in the assay on P388/ADR was 0.29 µM (active); in the assay on P388, 0.0757 µM (active); in the assay on SN12K1 it was 0.647 µM (active).

Consider `CC(=O)N(C)c1ccc(Nc2cc(C)nc3ccc4nc[nH]c4c23)cc1` [ACODAZOLE HYDROCHLORIDE], for which the GI50 in the assay with P388/ADR is 37 µM (inactive); with P388, 4.5 µM (inactive); in the assay on SN12K1, 4.9 µM (inactive).

With `CNC(=O)CSP(=S)(OC)OC` [DIMETHOATE], the IC50 in assay [3] and in [4] was > 66 µM (inactive) each time.

With `CC(C)=CCc1c(O)ccc2ccc(=O)oc12` [OSTHENOL], the GI50 was 50 µM (inactive) in the assay with P388/ADR, 42.7 µM (inactive) in the assay with P388 and 59.7 µM (inactive) in the assay with SN12K1.

Turning to `NNCCc1ccccc1` [PHENELZINE], the AC50 on Cytochrome P450 2C9 is 158 nM (inconclusive) and 10 µM (inconclusive).

The values are drawn from ChEMBL document CHEMBL1201862, “PubChem BioAssay data set” (2004).
